Experimental data published in US6444612B1, “Use of 5-amino-pyrazol-derivatives for combating micro-organisms” (Bayer Aktiengesellschaft, priority 1998, dated 2002).

Assay: log P value (physical constant)
Format: physicochemical
Details: acidic

| Compound | logP |
| --- | --- |
| CCOC(=O)c1c(CC)nn(C)c1NC(=O)Cc1cccc(Cl)c1 [Example 89, 5-(3-chloro-phenyl-acetyl)-amino-3-ethyl4-ethoxycarbonyl-l-methyl-pyrazole] | 2.65 |

Same assay, conditions: logP, Table 4

| Compound | Physical constant (logP) |
| --- | --- |
| Cc1cc(C)cc(-c2cc(C)c(CC(=O)Nc3c(Cl)c(C)nn3C)c(C)c2)c1 [Example 141] | logP = 4.09 |
| Cc1cc(C)c(-c2ccc(Cl)cc2)c(C)c1CC(=O)Nc1c(Cl)c(C)nn1C [Example 147] | logP = 4.08 |
| Cc1ccc(-c2ccc(Cl)cc2)cc1CC(=O)Nc1c(C#N)c(C)nn1C [Example 151] | logP = 3.20 |
| CC(=NOCc1ccccc1)c1cccc(CC(=O)Nc2c(Cl)c(C)nn2C)c1 [Example 126] | logP = 3.31 |
| CC(=O)c1cccc(CC(=O)Nc2c(C#N)c(C)nn2C)c1 [Example 114] | logP = 1.48 |
| Cn1nc(C2CC2)c(Cl)c1NC(=O)Cc1ccc(Oc2ccc(C#N)cc2)cc1 [Example 110] | logP = 2.90 |
| CCc1nn(C)c(NC(=O)Cc2c(C)cc(-c3ccc(Cl)cc3)cc2C)c1C#N [Example 166] | logP = 3.74 |
| Cc1cc(C)c(-c2ccc(Cl)cc2)c(C)c1CC(=O)Nc1c(C#N)c(C)nn1C [Example 159] | logP = 3.70 |
| Cc1cc(C)c(-c2ccccc2Cl)cc1CC(=O)Nc1c(Cl)c(C)nn1C [Example 145] | logP = 3.64 |
| CC(=NOCc1ccc(Cl)cc1Cl)c1cccc(CC(=O)Nc2c(Cl)c(C)nn2C)c1 [Example 129] | logP = 4.30 |
| CCc1cc(NC(=O)Cc2ccc(Br)cc2)n(C)n1 [Example 105] | logP = 2.13 |
| CCOC(=O)c1c(CC)nn(C)c1NC(=O)Cc1cccc(Oc2ccccc2)c1 [Example 111] | logP = 3.28 |
| CC(=NOCc1c(Cl)cccc1Cl)c1cccc(CC(=O)Nc2c(Cl)c(C)nn2C)c1 [Example 131] | logP = 3.91 |
| Cc1nn(C)c(NC(=O)Cc2ccc(-c3ccccc3)cc2)c1C#N [Example 150] | logP = 2.57 |
| Cc1cc(C)c(-c2ccccc2Cl)cc1CC(=O)Nc1c(C#N)c(C)nn1C [Example 157] | logP = 3.24 |
| C=CCON=C(C)c1cccc(CC(=O)Nc2c(Cl)c(C)nn2C)c1 [Example 132] | logP = 2.80 |
| CC(=NO)c1cccc(CC(=O)Nc2c(Cl)c(C)nn2C)c1 [Example 123] | logP = 1.85 |
| Cc1ccc(-c2cccc(Cl)c2)cc1CC(=O)Nc1c(Cl)c(C)nn1C [Example 140] | logP = 3.53 |
| COC(=O)c1c(C)nn(C)c1NC(=O)Cc1cccc(Br)c1 [Example 135] | logP = 2.11 |
| COc1ccccc1-c1cc(C)c(CC(=O)Nc2c(Cl)c(C)nn2C)c(C)c1 [Example 142] | logP = 3.25 |
| Cc1cc(C)cc(-c2cc(C)c(CC(=O)Nc3c(C#N)c(C)nn3C)c(C)c2)c1 [Example 152] | logP = 3.88 |
| CCc1nn(C)c(NC(=O)C=Cc2ccc(Oc3ccc([N+](=O)[O-])cc3)cc2)c1C#N [Example 108] | logP = 3.05 |

| Compound | Physical constant (logP) |
| --- | --- |
| Cc1cc(NC(=O)Cc2ccccc2Cl)n(CCC#N)n1 [Example 113] | logP = 1.77 |
| Cn1nc(C2CC2)cc1NC(=O)Cc1ccc(Oc2ccc(C#N)cc2)cc1 [Example 109] | logP = 2.45 |
| CCc1nn(C)c(NC(=O)Cc2c(F)cc(F)c(F)c2C(F)(F)F)c1C#N [Example 172] | logP = 2.59 |
| Cc1nn(C)c(NC(=O)Cc2c(F)cc(F)c(F)c2C(F)(F)F)c1C#N [Example 160] | logP = 2.32 |
| CCc1nn(C)c(NC(=O)Cc2c(C)cc(C)cc2C)c1Cl [Example 102] | logP = 3.01 |
| Cc1ccc(-c2ccc(Cl)cc2)c(C)c1CC(=O)Nc1c(C#N)c(C)nn1C [Example 156] | logP = 3.43 |
| CCc1nn(C)c(NC(=O)Cc2c(C)cc(C)cc2C)c1C#N [Example 136] | logP = 2.83 |
| Cc1cc(-c2cccc(Cl)c2)cc(C)c1CC(=O)Nc1c(Cl)c(C)nn1C [Example 143] | logP = 3.79 |
| CCc1nn(C)c(NC(=O)Cc2cc(-c3ccc(Cl)cc3)ccc2C)c1C#N [Example 163] | logP = 3.49 |
| CCOC(=O)c1c(CC)nn(C)c1NC(=O)C=Cc1ccc(Oc2ccc(C#N)cc2)cc1 [Example 106] | logP = 3.16 |
| Cc1cc(-c2ccc(Cl)cc2)cc(C)c1CC(=O)Nc1c(C#N)c(C)nn1C [Example 154] | logP = 3.46 |
| CCON=C(C)c1cccc(CC(=O)Nc2c(Cl)c(C)nn2C)c1 [Example 125] | logP = 2.88 |
| CCCNC(=O)c1ccccc1CC(=O)Nc1c(Cl)c(C)nn1C [Example 133] | logP = 1.92 |
| CCc1nn(C)c(NC(=O)Cc2cc(-c3ccccc3Cl)c(C)cc2C)c1C#N [Example 169] | logP = 3.51 |
| Cc1cc(C)c(-c2ccc(Cl)cc2)cc1CC(=O)Nc1c(Cl)c(C)nn1C [Example 146] | logP = 3.82 |
| Cc1cc(C)c(CC(=O)Nc2c(C#N)c(C)nn2C)c(C)c1 [Example 137] | logP = 2.36 |
| Cc1nn(C)c(NC(=O)Cc2ccc(-c3ccccc3)cc2)c1Cl [Example 139] | logP = 2.81 |
| CC(=NOC(C)(C)C)c1cccc(CC(=O)Nc2c(Cl)c(C)nn2C)c1 [Example 130] | logP = 3.53 |
| Cc1ccc(Oc2ccccc2CC(=O)Nc2c(C#N)c(C)nn2C)c(C)c1 [Example 149] | logP = 3.17 |
| Cc1cc(NC(=O)Cc2ccc(Cl)cc2Cl)n(C)n1 [Example 121] | logP = 2.06 |
| CCc1nn(C)c(NC(=O)Cc2c(C)cc(-c3cccc(Cl)c3)cc2C)c1C#N [Example 167] | logP = 3.70 |
| CC(=NOCc1ccc(Cl)nc1)c1cccc(CC(=O)Nc2c(Cl)c(C)nn2C)c1 [Example 128] | logP = 2.80 |

| Compound | Physical constant (logP) |
| --- | --- |
| CCOC(=O)c1c(CC)nn(C)c1NC(=O)Cc1ccc(OCc2ccccc2)cc1 [Example 104] | logP = 3.26 |
| CCc1nn(C)c(NC(=O)Cc2ccc(-c3ccccc3)cc2)c1C#N [Example 162] | logP = 2.81 |
| Cc1nn(C)c(NC(=O)Cc2c(F)cc(F)c(F)c2C(F)(F)F)c1Cl [Example 148] | logP = 2.60 |
| CON=C(C)c1cccc(CC(=O)Nc2c(Cl)c(C)nn2C)c1 [Example 124] | logP = 2.32 |
| Cc1nn(C)c(NC(=O)Cc2ccccc2C(=O)NCc2ccc(Cl)nc2)c1Cl [Example 134] | logP = 1.91 |
| CCc1nn(C)c(NC(=O)Cc2c(C)cc(-c3ccccc3OC)cc2C)c1C#N [Example 165] | logP = 3.20 |
| CC(=O)Oc1cccc(CC(=O)Nc2c(C#N)c(C)nn2C)c1 [Example 119] | logP = 1.88 |
| CCc1nn(C)c(NC(=O)Cc2ccc(OC(C)=O)cc2)c1C#N [Example 120] | logP = 1.84 |
| CCOC(=O)c1c(CC)nn(C)c1NC(=O)C=Cc1ccc(Oc2ccc([N+](=O)[O-])cc2)cc1 [Example 107] | logP = 3.41 |
| COC(=O)c1c(C)nn(C)c1NC(=O)Cc1cccc(C(C)=O)c1 [Example 116] | logP = 1.50 |
| Cc1cc(C)c(-c2ccc(Cl)cc2)cc1CC(=O)Nc1c(C#N)c(C)nn1C [Example 158] | logP = 3.49 |
| CCc1nn(C)c(NC(=O)Cc2c(C)cc(-c3cc(C)cc(C)c3)cc2C)c1C#N [Example 164] | logP = 3.96 |
| Cc1nn(C)c(NC(=O)Cc2ccccc2C(=O)O)c1Cl [Example 122] | logP = 1.50 |
| CCc1nn(C)c(NC(=O)Cc2cc(-c3ccc(Cl)cc3)c(C)cc2C)c1C#N [Example 170] | logP = 3.77 |
| Cc1cc(-c2cccc(Cl)c2)cc(C)c1CC(=O)Nc1c(C#N)c(C)nn1C [Example 155] | logP = 3.42 |
| Cc1ccc(-c2ccc(Cl)cc2)c(C)c1CC(=O)Nc1c(Cl)c(C)nn1C [Example 144] | logP = 3.84 |
| CCc1nn(C)c(NC(=O)Cc2ccccc2Oc2ccc(C)cc2C)c1C#N [Example 161] | logP = 3.44 |
| COc1ccccc1-c1cc(C)c(CC(=O)Nc2c(C#N)c(C)nn2C)c(C)c1 [Example 153] | logP = 2.95 |
| CC(=NOCc1ccc(C(F)(F)F)cc1)c1cccc(CC(=O)Nc2c(Cl)c(C)nn2C)c1 [Example 127] | logP = 3.83 |
| Cc1ccc(Oc2ccccc2CC(=O)Nc2c(Cl)c(C)nn2C)c(C)c1 [Example 138] | logP = 3.44 |
| CCc1nn(C)c(NC(=O)Cc2cccc(C(C)=O)c2)c1C#N [Example 115] | logP = 1.71 |
